# Laboratory results from US20250144099A1, “INK4 TUMOR SUPPRESSOR PROTEINS MEDIATE RESISTANCE TO CDK4/6 KINASE INHIBITORS” (MEMORIAL SLOAN-KETTERING CANCER CENTER, priority 2021, published 2025).
# What was measured:
# [1] = tested on: CDK6 expression in PTEN knockdown cells; experiment: Immunoblotting of CDK6 expression in PTEN knockdown cells; assay type: cell-based, human; set-up: dose or concentration left out as unconfirmed; settings: MK-2206 as printed
# Procedure: Cell lysates were collected in RIPA buffer (Thermo Fisher Scientific) supplemented with protease and phosphatase inhibitors (Pierce). Protein concentration was quantified by using the BCA kit (Fisher Scientific). […] of protein lysates were loaded onto 4-12% SDS-PAGE gels (Invitrogen) for electrophoresis and transferred onto nitrocellular membranes. Blots were blocked with Intercept™ (TBS) Blocking Buffer (LI-COR Bioscience #927-60001) and incubated with primary antibody at 4° C. overnight. Secondary antibodies conjugated with fluorescence (LI-COR Bioscience #926-68071 and #926-32210) were incubated for 1 h at room temperature and blots were scanned by Odyssey Clx Imaging System from LI-COR Bioscience.
# CDK6 = CDK6 (Homo sapiens, UniProt Q00534); experiment: IP-in vitro kinase assay (ADP-Glo, Rb substrate) of immunoprecipitated CDK6; assay type: biochemical; set-up: Upregulation of wild-type CDK6 expression as a recurrent mechanism; endogenous in cells; host or cells: MCF-7 FAT1 CRISPR knockout (CDK6-high) cells; settings: IP-CDK6 from resistant CDK6-high (FAT1 loss) MCF7 cells, pre-treatment with 100 nM abemaciclib
# Procedure: IP-in vitro kinase assay. […] Lysates were collected as described above. […] of cell lysates were incubated with […] CDK4 (# sc-23896, Santa Cruz Biotechnology) or CDK6 (# sc-177-G, Santa Cruz Biotechnology) antibody at 4° C. overnight. 20 μl of ChIP-grade magnetic beads (Thermo Fisher Scientific) was added into each IP tube and incubated for 2 hours. IP samples were washed 2 times with kinase lysis buffer and 2 times with kinase reaction buffer (40 mM Tris-HCl [pH 7.5], 20 mM MgCl2, 0.1 mg/ml BSA, from SignalChem, #K03-09, with […] DTT adding freshly). 100 μl of kinase reaction buffer with 0.5 μg of recombinant human Rb1 protein and 100 μM of ATP was added into each tube.
# Sequence of CDK6 (Q00534 whole entry): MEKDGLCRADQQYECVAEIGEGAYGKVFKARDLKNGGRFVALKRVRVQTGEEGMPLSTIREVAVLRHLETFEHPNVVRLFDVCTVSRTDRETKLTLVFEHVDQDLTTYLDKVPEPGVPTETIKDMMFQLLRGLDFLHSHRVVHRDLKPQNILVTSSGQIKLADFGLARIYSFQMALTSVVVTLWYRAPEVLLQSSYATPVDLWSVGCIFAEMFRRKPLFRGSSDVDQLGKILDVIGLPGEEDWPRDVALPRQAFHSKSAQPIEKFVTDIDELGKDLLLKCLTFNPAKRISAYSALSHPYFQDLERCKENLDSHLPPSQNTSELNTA
# Sequence of CDK6 (P30281 whole entry partner): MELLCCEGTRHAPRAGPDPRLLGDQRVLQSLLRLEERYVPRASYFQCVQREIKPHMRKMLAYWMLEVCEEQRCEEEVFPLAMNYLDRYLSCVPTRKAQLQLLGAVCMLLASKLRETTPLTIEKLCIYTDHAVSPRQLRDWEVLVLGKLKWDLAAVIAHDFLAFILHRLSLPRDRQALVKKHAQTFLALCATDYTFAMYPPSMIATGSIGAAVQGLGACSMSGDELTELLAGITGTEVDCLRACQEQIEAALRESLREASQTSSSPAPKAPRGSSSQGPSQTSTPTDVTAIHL
SMILES,CDK6 expression [1],CDK6 activity reduced compared to untreated (CDK6)
NC1(c2ccc(-c3nc4ccn5c(=O)[nH]nc5c4cc3-c3ccccc3)cc2)CCC1 [MK-2206],suppressed the expression of CDK6,–
CCN1CCN(Cc2ccc(Nc3ncc(F)c(-c4cc(F)c5nc(C)n(C(C)C)c5c4)n3)nc2)CC1 [abemaciclib],–,48%
